These results are taken from US11938122B2, “5-[[4-[2-[5-(1-hydroxyethyl)pyridin-2-yl]ethoxy]phenyl]methyl]-1,3- thiazolidine-2,4-dione for treating nonalcoholic fatty liver disease” (Minoryx Therapeutics S.L., priority 2016, dated 2024).

Where two headings read alike, the source gives them in different places.

Data set [1] concerns diabetic preclinical models. As to conditions: compared with pioglitazone, literature; cited from earlier work.
A further data set concerns the target T1, 2C8 (Homo sapiens, UniProt P10632).
T1 sequence (P10632 1-490): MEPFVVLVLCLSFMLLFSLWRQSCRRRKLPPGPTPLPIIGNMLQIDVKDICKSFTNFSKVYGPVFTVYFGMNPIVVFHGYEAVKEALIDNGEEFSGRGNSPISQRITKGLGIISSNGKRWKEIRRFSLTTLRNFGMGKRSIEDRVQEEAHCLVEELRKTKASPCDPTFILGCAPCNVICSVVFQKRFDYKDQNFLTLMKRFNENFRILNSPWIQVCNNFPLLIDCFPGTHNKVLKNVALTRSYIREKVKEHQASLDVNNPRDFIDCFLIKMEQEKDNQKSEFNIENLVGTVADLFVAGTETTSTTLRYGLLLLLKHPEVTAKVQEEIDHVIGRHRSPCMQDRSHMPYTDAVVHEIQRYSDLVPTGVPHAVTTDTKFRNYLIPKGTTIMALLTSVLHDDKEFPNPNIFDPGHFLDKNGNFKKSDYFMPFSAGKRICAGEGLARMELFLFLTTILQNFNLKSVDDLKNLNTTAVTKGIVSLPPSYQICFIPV
To be noted: Sahi et al.; cited from earlier work.

In the next data set the test system is bladder urothelium. The data set is described as follows: Bladder epithelium hyperplasia in rat tissue. To be noted: treated rats; pioglitazone 14.5 and 145 mg/Kg/day, MIN-102 25, 100 and 150 mg/Kg/day. Format: in vivo.
The conditions of data set [2]: cited from earlier work; for AUC0-∞ mean: healthy subjects, single oral dose 45 mg.
For a further data set, the system named is CYP2B6. As to the kind of experiment: CYP induction in cryopreserved human hepatocytes. The format is in vitro ADME. As to conditions: 50 μM, similar assay.
Another data set deals with CYP3A4. The data set is described as follows: CYP induction in cryopreserved human hepatocytes. To be noted: 10 μM, similar assay. Format: in vitro ADME.
[3] abbreviates: Eckland et al., Christensen et al.

As for `CC(O)c1ccc(CCOc2ccc(CC3SC(=O)NC3=O)cc2)nc1` (stereo not drawn) [(1), 5-[[4-[2-[5-(1-hydroxyethyl)pyridin-2-yl]ethoxy]phenyl]methyl]-1,3-thiazolidine-2,4-dione], the pharmacological activity result in data set [1] was “less active than pioglitazone”.

As for `CC(=O)c1ccc(CCOc2ccc(CC3SC(=O)NC3=O)cc2)nc1` (stereo not drawn) [M-III, reference compound], the pharmacological activity entry in data set [1] is “less active than pioglitazone”.

On to `CCc1ccc(CCOc2ccc(CC3SC(=O)NC3=O)cc2)nc1` (stereo not drawn) [pioglitazone], for which, at 2C8, the IC50 is 9.38 µM and the Ki is 1.69 µM. Besides, the bladder epithelium hyperplasia result in the data set on bladder urothelium is “only observed in the pioglitazone group”. In addition, in data set [2] (setting [3]), the “range in exposure (AUC)” value is reported as “up to 10 fold” and the “variability (CV %) in clearance” value is reported as 40%-50%. Moreover, the “AUC0-∞ mean” value in data set [2] (study a) is 13854 ng·h/mL. Also, in data set [2] (study b), the “AUC0-∞ mean” value is 14458 ng·h/mL. Further, in data set [2] (study c), the “AUC0-∞ mean” value was 14071 ng·h/mL. Further, in the data set on CYP2B6, the “induction in CYPB6” value is reported as 2.35 fold. Further, the “induction in CYP3A4” value with CYP3A4 is reported as 4.79 fold.
